# Measured values reported in US8546443B2, “Benzylic oxindole pyrimidines” (Boehringer Ingelheim International GmbH, priority 2010, dated 2013).
# Molecular target: T1, cytoplasmic kinase domain of human IGF-1R (IGF-1R-GST) (Homo sapiens, UniProt P08069)
# T1 construct: cytoplasmic kinase domain of human IGF-1R (amino acids 964-1370); GST (glutathione-S-transferase); made in house; host or cells: High Five insect cells (Invitrogen)
# Test: Insulin-like growth factor-1 receptor (IGF-1R) kinase assay (DELFIA)
# Assay type: biochemical
# Settings: IGF-1R-GST kinase activity, read-out: IGF1R IC50
# Method: Insulin-Like Growth Factor-1 Receptor (IGF-1R)-Kinase Assay
# The kinase activity is measured by DELFIA® assay (dissociation-enhanced lanthanide fluorescence immunoassay, Perkin Elmer). […] Enzyme activity is measured in the presence of substances and a control substance. Poly-glutamate-tyrosine peptide (pEY, Sigma Aldrich) and biotinylated pEY (bio-pEY) are used as reaction substrates.
# After 40 min at RT the reactions are stopped with 50 μL of stop solution (250 mM EDTA, 20 mM HEPES pH 7.4). 90 μL from each reaction are transferred onto streptavidin-coated 96-well plates. After 120 min incubation at RT the plates are washed three times with 200 μL phosphate-buffered saline (PBS) per well. The plates are incubated for 60 min with 100 μL of europium-coupled antibody against phospho-tyrosine (diluted 1/2000 in Perkin Elmer DELFIA assay buffer) per well. The plates are washed three times with 200 μL per well of DELFIA washing buffer. 100 μL DELFIA Enhancement Solution (Perkin Elmer) is added to each well, and the plates are incubated for 10 min. The fluorescence signal is measured with a Wallac Victor TRF Reader. IC50 values for the inhibition of the IGF-1R-kinase activity are calculated using the programmes Fifty (Version 2) and GraphPad (Version 3.0).
# T1 sequence (P08069 964-1367 limits assumed): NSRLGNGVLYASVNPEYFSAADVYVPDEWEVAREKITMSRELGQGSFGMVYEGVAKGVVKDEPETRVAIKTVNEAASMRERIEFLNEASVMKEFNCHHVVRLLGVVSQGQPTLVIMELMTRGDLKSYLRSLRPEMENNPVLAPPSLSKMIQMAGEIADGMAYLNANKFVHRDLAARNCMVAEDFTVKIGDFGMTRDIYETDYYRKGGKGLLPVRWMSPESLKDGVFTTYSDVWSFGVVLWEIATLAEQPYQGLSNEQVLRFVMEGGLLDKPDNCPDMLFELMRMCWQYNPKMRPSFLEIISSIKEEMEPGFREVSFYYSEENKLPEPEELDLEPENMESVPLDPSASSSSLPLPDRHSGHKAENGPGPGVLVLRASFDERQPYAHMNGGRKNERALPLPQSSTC
row,IC50 [nM],Compound
1,0.62,CCN1CCN(c2ccc(Nc3ncc(C(F)(F)F)c(NCc4cccc5c4C(C)(C)C(=O)N5)n3)c(OC)c2)C[C@H]1C [Example I-107]
2,0.93,COc1cc(N2CCN(C)[C@H](C)C2)ccc1Nc1ncc(C(F)(F)F)c(NCc2cccc3c2C(C)(C)C(=O)N3)n1 [Example I-108]
3,0.87,COc1cc(N2CCN(C3CCC3)[C@H](C)C2)ccc1Nc1ncc(C(F)(F)F)c(NCc2cccc3c2C(C)(C)C(=O)N3)n1 [Example I-109]
4,8,COc1cc(N2CCN(C3CCN(C(C)=O)CC3)CC2)ccc1Nc1ncc(C(F)(F)F)c(NCc2cccc3c2CC(=O)N3)n1 [Example I-110]
5,18,COc1cc(N2CCN(C3CCN(C(C)C)CC3)CC2)ccc1Nc1ncc(C(F)(F)F)c(NCc2cccc3c2CC(=O)N3)n1 [Example I-111]
6,5,COc1cc(N2CCN(C3CCN(C4CC4)CC3)CC2)ccc1Nc1ncc(C(F)(F)F)c(NCc2cccc3c2CC(=O)N3)n1 [Example I-112]
7,3,COc1cc(N2CCN(C3CCN(CC#N)CC3)CC2)ccc1Nc1ncc(C(F)(F)F)c(NCc2cccc3c2CC(=O)N3)n1 [Example I-113]
8,4,CCN1CCC(N2CCN(c3ccc(Nc4ncc(C(F)(F)F)c(NCc5cccc6c5CC(=O)N6)n4)c(OC)c3)CC2)CC1 [Example I-114]
9,10,COc1cc(N2CCN(C3CCN(C4CCOCC4)CC3)CC2)ccc1Nc1ncc(C(F)(F)F)c(NCc2cccc3c2CC(=O)N3)n1 [Example I-115]
10,10,COc1cc(N2CCN(C(C)C)CC2)ccc1Nc1ncc(C(F)(F)F)c(NCc2cccc3c2CC(=O)N3)n1 [Example I-116]
11,9,COc1cc(N2CCN(C3CCN(C)CC3)CC2)ccc1Nc1ncc(C(F)(F)F)c(NCc2cccc3c2CC(=O)N3)n1 [Example I-117]
12,11,COc1cc(N2CCN(C3CCOCC3)CC2)ccc1Nc1ncc(C(F)(F)F)c(NCc2cccc3c2CC(=O)N3)n1 [Example I-118]
13,11,COc1cc(N2CCN(C)CC2)ccc1Nc1ncc(C(F)(F)F)c(NCc2cccc3c2CC(=O)N3)n1 [Example I-119]
14,49,COc1cc(N2CCN(Cc3ccncc3)CC2)ccc1Nc1ncc(C(F)(F)F)c(NCc2cccc3c2CC(=O)N3)n1 [Example I-120]
15,16,COc1cc(N2CCN(C3CCN(CCO)CC3)CC2)ccc1Nc1ncc(C(F)(F)F)c(NCc2cccc3c2CC(=O)N3)n1 [Example I-121]
16,15,COCCN1CCC(N2CCN(c3ccc(Nc4ncc(C(F)(F)F)c(NCc5cccc6c5CC(=O)N6)n4)c(OC)c3)CC2)CC1 [Example I-122]
17,12,COc1cc(N2CCN(C3CCN(C(=O)N(C)C)CC3)CC2)ccc1Nc1ncc(C(F)(F)F)c(NCc2cccc3c2CC(=O)N3)n1 [Example I-123]
18,12,COc1cc(N2CCN(C3CCN(S(=O)(=O)N(C)C)CC3)CC2)ccc1Nc1ncc(C(F)(F)F)c(NCc2cccc3c2CC(=O)N3)n1 [Example I-124]
19,15,COc1cc(N2CCN(C3CCN(S(C)(=O)=O)CC3)CC2)ccc1Nc1ncc(C(F)(F)F)c(NCc2cccc3c2CC(=O)N3)n1 [Example I-125]

row,IC50 [nM],Compound
1,3,COc1cc(N2CCN(C3CCOCC3)CC2)ccc1Nc1ncc(C(F)(F)F)c(NCc2cccc3c2C(C)(C)C(=O)N3C)n1 [Example I-126]
2,3,COc1cc(N2CCN(C)CC2)ccc1Nc1ncc(C(F)(F)F)c(NCc2cccc3c2C(C)(C)C(=O)N3C)n1 [Example I-127]
3,2,COc1cc(N2CCN(C(C)C)CC2)ccc1Nc1ncc(C(F)(F)F)c(NCc2cccc3c2C(C)(C)C(=O)N3C)n1 [Example I-128]
4,2,CCN1CCN(c2ccc(Nc3ncc(C(F)(F)F)c(NCc4cccc5c4C(C)(C)C(=O)N5C)n3)c(OC)c2)CC1 [Example I-129]
5,2,COc1cc(N2CCN(C3CCN(C)CC3)CC2)ccc1Nc1ncc(C(F)(F)F)c(NCc2cccc3c2C(C)(C)C(=O)N3C)n1 [Example I-130]
6,0.33,COc1cc(N2CCN(CC3CC3)[C@H](C)C2)ccc1Nc1ncc(C(F)(F)F)c(NCc2cccc3c2C(C)(C)C(=O)N3)n1 [Example I-131]
7,0.6,COc1cc(N2CCN(C3CCN(C)CC3)[C@H](C)C2)ccc1Nc1ncc(C(F)(F)F)c(NCc2cccc3c2C(C)(C)C(=O)N3)n1 [Example I-132]
8,13,CN1CCN(c2ccc(Nc3ncc(C(F)(F)F)c(NCc4cccc5c4C(C)(C)C(=O)N5)n3)cn2)CC1 [Example I-133]
9,1,CC(C)N1CCC(c2ccc(Nc3ncc(C(F)(F)F)c(NCc4cccc5c4C(C)(C)C(=O)N5)n3)cc2)CC1 [Example I-134]
10,0.57,COc1cc(N2CCN(C3CCN(C)CC3)CC2)ccc1Nc1ncc(C(F)(F)F)c(NCc2cccc3c2C(C)(C)C(=O)N3)n1 [Example I-135]
11,2,COc1cc(N2CCN(C(C)C)CC2)ccc1Nc1ncc(C(F)(F)F)c(NCc2cccc3c2C(C)(C)C(=O)N3)n1 [Example I-136]
12,65,CCc1cc(Nc2ncc(C(F)(F)F)c(NCc3cccc4c3CC(=O)N4)n2)c(OC)cc1N1CCN(C(C)C)CC1 [Example I-137]
13,13,CCOc1cc(N2CCN(C)CC2)ccc1Nc1ncc(C(F)(F)F)c(NCc2cccc3c2CC(=O)N3)n1 [Example I-138]
14,8,CCOc1cc(N2CCN(C(C)C)CC2)ccc1Nc1ncc(C(F)(F)F)c(NCc2cccc3c2CC(=O)N3)n1 [Example I-139]
15,11,CCOc1cc(N2CCN(CC)CC2)ccc1Nc1ncc(C(F)(F)F)c(NCc2cccc3c2CC(=O)N3)n1 [Example I-140]
16,19,CCOc1cc(N2CCN(C3COC3)CC2)ccc1Nc1ncc(C(F)(F)F)c(NCc2cccc3c2CC(=O)N3)n1 [Example I-141]
17,0.55,CCOc1cc(N2CCN(C)CC2)ccc1Nc1ncc(C(F)(F)F)c(NCc2cccc3c2C(C)(C)C(=O)N3)n1 [Example I-142]
18,1,CCOc1cc(N2CCN(C(C)C)CC2)ccc1Nc1ncc(C(F)(F)F)c(NCc2cccc3c2C(C)(C)C(=O)N3)n1 [Example I-143]
19,0.81,CCOc1cc(N2CCN(CC)CC2)ccc1Nc1ncc(C(F)(F)F)c(NCc2cccc3c2C(C)(C)C(=O)N3)n1 [Example I-144]

row,IC50 [nM],Compound
1,0.67,CCOc1cc(N2CCN(C3CCN(C)CC3)CC2)ccc1Nc1ncc(C(F)(F)F)c(NCc2cccc3c2C(C)(C)C(=O)N3)n1 [Example I-145]
2,4,CCOc1cc(N2CCN(C3COC3)CC2)ccc1Nc1ncc(C(F)(F)F)c(NCc2cccc3c2C(C)(C)C(=O)N3)n1 [Example I-146]
3,5,COc1cc(N2CC3CC2CN3C2CCN(C)CC2)ccc1Nc1ncc(C(F)(F)F)c(NCc2cccc3c2C(C)(C)C(=O)N3)n1 (stereo not drawn) [Example I-147]
4,3,COc1cc(N2CC3CC2CN3C2CCC2)ccc1Nc1ncc(C(F)(F)F)c(NCc2cccc3c2C(C)(C)C(=O)N3)n1 (stereo not drawn) [Example I-148]
5,2,COc1cc(N2CC3CC2CN3CC2CC2)ccc1Nc1ncc(C(F)(F)F)c(NCc2cccc3c2C(C)(C)C(=O)N3)n1 (stereo not drawn) [Example I-149]
6,3,COc1cc(N2CC3CC2CN3C2CCOCC2)ccc1Nc1ncc(C(F)(F)F)c(NCc2cccc3c2C(C)(C)C(=O)N3)n1 (stereo not drawn) [Example I-150]
7,2,COc1cc(N2CC3CC2CN3C)ccc1Nc1ncc(C(F)(F)F)c(NCc2cccc3c2C(C)(C)C(=O)N3)n1 (stereo not drawn) [Example I-151]
8,3,COc1cc(N2CC3CC2CN3C(C)C)ccc1Nc1ncc(C(F)(F)F)c(NCc2cccc3c2C(C)(C)C(=O)N3)n1 (stereo not drawn) [Example I-152]
9,2,CCN1CC2CC1CN2c1ccc(Nc2ncc(C(F)(F)F)c(NCc3cccc4c3C(C)(C)C(=O)N4)n2)c(OC)c1 (stereo not drawn) [Example I-153]
10,13,COc1cc(N2CC3CC2CN3C2COC2)ccc1Nc1ncc(C(F)(F)F)c(NCc2cccc3c2C(C)(C)C(=O)N3)n1 (stereo not drawn) [Example I-154]
11,1,COc1cc(N2CCN(C3CCC3)CC2)ccc1Nc1ncc(C(F)(F)F)c(NCc2cccc3c2C(C)(C)C(=O)N3)n1 [Example I-155]
12,4,COc1cc(N2CCN(C3COC3)CC2)ccc1Nc1ncc(C(F)(F)F)c(NCc2cccc3c2C(C)(C)C(=O)N3)n1 [Example I-156]
13,0.61,CCN1CCN(c2ccc(Nc3ncc(C(F)(F)F)c(NCc4cccc5c4C(C)(C)C(=O)N5)n3)c(OC)c2)CC1 [Example I-157]
14,2,COc1cc(N2CCN(C3CCN(C(C)=O)CC3)CC2)ccc1Nc1ncc(C(F)(F)F)c(NCc2cccc3c2C(C)(C)C(=O)N3)n1 [Example I-158]
15,0.41,COc1cc(C2CCN(C(C)C)CC2)ccc1Nc1ncc(C(F)(F)F)c(NCc2cccc3c2C(C)(C)C(=O)N3)n1 [Example I-159]
16,0.96,CN1CCC(c2ccc(Nc3ncc(Cl)c(NCc4cccc5c4C4(CC4)C(=O)N5)n3)cc2)CC1 [Example I-161]
17,2,COc1cc(N2CCN(CC3CC3)CC2)ccc1Nc1ncc(C(F)(F)F)c(NCc2cccc3c2C(C)(C)C(=O)N3)n1 [Example I-162]
18,10,CCOC(=O)N1CCC(N2CCN(c3ccc(Nc4ncc(C(F)(F)F)c(NCc5cccc6c5C(C)(C)C(=O)N6)n4)c(OC)c3)CC2)CC1 [Example I-163]
19,14,COc1cc(N2CCN(Cc3ccco3)CC2)ccc1Nc1ncc(C(F)(F)F)c(NCc2cccc3c2C(C)(C)C(=O)N3)n1 [Example I-164]
